Test results published in US6936624B2, “Agents for preserving technical materials against insects” (Nihon Bayer Agrochem K.K., priority 1991, dated 2005).
“And” between values parts separate entries of the source, which are not always exact repeats. Equal values may be shown once. Read-outs that look alike come from different tables or passages of the source.

Key:
[1] = tested on: worker termites (Coptotermes formosanus); assay: Formicidal test: treated filter paper in petri dish, termite mortality; format: in vivo; details: for mortality at 0.32 ppm / mortality at 1.6 ppm / mortality at 8 ppm / mortality at 40 ppm: Coptotermes formosanus, 96 h, read-out: Mortality of termites after four days
From the text: Examples of the active compounds according to the present invention • I.1: 1-(6-chloro-3-pyridylmethyl)-2-nitromethylene-imidazolidine • I.2: 3-(6-chloro-3-pyridylmethyl)-2-nitromethylene-thiazolidine • I.3: imidacloprid
Comparative compounds • A: phoxim • B: chlorpyriphos Preparation of test formulation: • Solvent: 3 parts by weight of xylene • Emulsifier: 1 part by weight of polyoxyethylene-alkylphenyl-ether
To prepare a suitable formulation of the active compound, 1 part by weight of each of the active compounds was mixed with the above-mentioned amount of the solvent containing the above-mentioned amount of the emulsifier, and the mixture was diluted with water to a predetermined concentration.
1 ml of the aqueous solution prepared in the above-mentioned procedure was uniformly applied using a pipette onto a filter paper that was placed in petri dish of 9 cm diameter. Ten head of worker termites (Coptotermes formosanus) were replaced into the petri dish and it was kept in a constant temperature chamber at 25° C.
After four days, the mortality of the termites was investigated. This test procedure was carried out in duplicate per each concentration of the active compounds under test.

[2] = tested on: working termites and soldier termites (Coptotermes formosanus); assay: whole plant or invertebrate; format: in vivo; details: for Degree of xylophagous damage in the pine tree block (0-5): after three weeks; for mortality at 0.32 ppm / mortality at 1.6 ppm / mortality at 8 ppm / mortality at 40 ppm: Coptotermes formosanus, read-out: Mortality termites after three weeks; for Mortality termites after three weeks: blocks aged four weeks at 40° C.
Protocol: Small blocks of Japanese redpine tree (2 cm×2 cm×2 cm) were soaked for one minute into the aqueous solution prepared by the similar procedure to Example 8.
After air-dried, they were kept in a constant temperature chamber at 40° C. for four weeks. Then each of the thus treated blocks was placed in a polymeric cup (10 cm diameter) containing 150 ml of sandy loam of 20% moisture content. Into each of the polymeric cups, 100 head of working termites and 10 head of soldier termites (Coptotermes formosanus) were released. After three weeks, the degree of xylophagous damage in the block and the mortality of the termites were investigated.

[3] = tested on: larvae of Hylotrupes bajulus; details: comparative values, Holz als Roh- und Werkstoff 35 (1977) 233-237, table 6; cited from earlier work
[4] = tested on: Reticulitermes santonensis; details: comparative values, Holz als Roh- und Werkstoff 35 (1977) 233-237, table 10; cited from earlier work
[5] = tested on: larvae of Hylotrupes bajulus; assay: Toxic value against larvae of Hylotrupes bajulus, DIN EN 47, impregnated wood samples; format: in vivo
From the text: The toxicity against larvae of Hylotorupes bajulus, using wood samples treated with the active compound I.3 […] to the detailed description of DIN EN 47 (edition 1990, Beuth Verlag GMBH) which is concerned with the European standard method prescribed by the European Committee for standardization concerning wood preservatives, determination of the toxic value against larvae of Hylotrupes bajulus.
An outline of the method is as follows: (see DIN EN 47 for detail)
Five wood-samples (50 mm×25 mm×15 mm) which are treated by the active compound beforehand (impregnation treatment in vacuum) are provided and in each specimen, a regular pattern of six holes are bored, and then one head of the larvae is inserted per a hole.
After four weeks, the specimens are cut up in turn and the number of live/dead of larvae is determined.
In determination, where a live larvae is identified in a specimen, then the remaining specimens without cutting up are stored for a further eight weeks, and afterword, the number of live/dead larvae is determined.

[6] = tested on: Reticulitermes santonensis; assay: Effectiveness against Reticulitermes santonensis, DIN EN 117, impregnated wood samples; format: in vivo; details: eight weeks, per wood sample
Protocol: The toxicity against Reticulitermes santonensis of solutions containing the active compound I.3 in chloroform having the concentrations mentioned in Example 10 was determined according to the detailed description of DIN EN 117 Edition 1981 which is concerned with the European standard method prescribed by the European Committee for standardization concerning wood preservatives, determination of the toxic value against Reticulitermes santonesis.
An outline of the method is as follows: (see DIN EN 117 for detail)
The same three wood-samples with impregnation treatment in vacuum as in Example 10 are provided.
They are exposed to 250 workers, 1 soldier and 1 nymph per batch for eight weeks, and afterword, the number of live/dead larvae is determined.
The evaluation was made by the following standard:
* rating values: • 0=no attack • 1=attempted attack • 2=slight attack • 3=average attack • 4=strong attack

[7] = 0.32 ppm active compound, filter paper, 25° C.
[8] = 1.6 ppm active compound, filter paper, 25° C.
[9] = 8 ppm active compound, filter paper, 25° C.
[10] = 40 ppm active compound, filter paper, 25° C.
[11] = 4 weeks, impregnating solution 0.00144 %, M-value 10.80 g/m^3 wood
[12] = 4 weeks, impregnating solution 0.0072 %, M-value 52.85 g/m^3 wood
[13] = 4 weeks, impregnating solution 0.0144 %, M-value 103.97 g/m^3 wood
[14] = 12 weeks, impregnating solution 0.000144 % (so in the source), M-value 0.11 g/m^3 wood
[15] = 12 weeks, impregnating solution 0.000144 %, M-value 1.08 g/m^3 wood
[16] = 12 weeks, impregnating solution 0.00144 % (remaining three specimens), M-value 10.80 g/m^3 wood
[17] = 1.44 × 10^−2% (m/m), average absorbed 136.627 g/m^3
[18] = 1.44 × 10^−3% (m/m), average absorbed 13.463 g/m^3
[19] = 1.44 × 10^−4% (m/m), average absorbed 1.344 g/m^3
[20] = 1.44 × 10^−5% (m/m), average absorbed 0.135 g/m^3
[21] = 7.20 × 10^−3% (m/m), average absorbed 68.211 g/m^3

## CCOP(=S)(OCC)O/N=C(\C#N)c1ccccc1 [A, 0-(α-cyanobenzylideneamino)0,0-diethylphosphorothioate, reference compound]
[1]; [7]
  mortality at 0.32 ppm: 90%
[1]; [8]
  mortality at 1.6 ppm: 100%
[1]; [9]
  mortality at 8 ppm: 100%
[1]; [10]
  mortality at 40 ppm: 100%
[2]; 0.32 ppm
  Degree of xylophagous damage in the pine tree block (0-5): 5
[2]; 1.6 ppm
  Degree of xylophagous damage in the pine tree block (0-5): 5
[2]; 8 ppm
  Degree of xylophagous damage in the pine tree block (0-5): 5
[2]; 40 ppm
  Degree of xylophagous damage in the pine tree block (0-5): 3
[2]
  mortality at 0.32 ppm: 0%
  mortality at 1.6 ppm: 0%
  mortality at 8 ppm: 0%
  mortality at 40 ppm: 25%
[3]
  toxic value: 7-12 g/m^3
[4]
  toxic value: 400 g/m^3

## CCOP(=S)(OCC)Oc1nc(Cl)c(Cl)cc1Cl [B, 0,0-diethyl-3,5,6-trichloro-2-pyridylphosphorothioate, reference compound]
[1]; [7]
  Mortality of termites after four days: 100%
[1]; [8]
  Mortality of termites after four days: 100%
[1]; [9]
  Mortality of termites after four days: 100%
[1]; [10]
  Mortality of termites after four days: 100%
[2]; 0.32 ppm
  Degree of xylophagous damage in the pine tree block (0-5): 5
  Mortality termites after three weeks: 0%
[2]; 1.6 ppm
  Degree of xylophagous damage in the pine tree block (0-5): 3
  Mortality termites after three weeks: 0%
[2]; 8 ppm
  Degree of xylophagous damage in the pine tree block (0-5): 1
  Mortality termites after three weeks: 78%
[2]; 40 ppm
  Degree of xylophagous damage in the pine tree block (0-5): 0
  Mortality termites after three weeks: 100%

## CCC(C)c1ccccc1OC(=O)NC (stereo not drawn) [Bassa (Baycarb)]
[4]
  toxic value: 500 g/m^3

## CCOP(=S)(OCC)ON=C(C#N)c1ccccc1Cl [Chlorophoxim]
[4]
  toxic value: 500 g/m^3

## Clc1ccc(C(c2ccc(Cl)cc2)C(Cl)(Cl)Cl)cc1 [DDT]
[3]
  toxic value: 5-10 g/m^3
[4]
  toxic value: >1 500 g/m^3

## ClC1=C(Cl)[C@]2(Cl)[C@@H]3[C@@H]4C[C@@H]([C@H]5O[C@@H]45)[C@@H]3[C@@]1(Cl)C2(Cl)Cl [Dieldrin]
[4]
  toxic value: 50 g/m^3

## CCOP(=S)(OCC)Oc1ccc([N+](=O)[O-])cc1 [Ethylparathion]
[4]
  toxic value: 200 g/m^3

## O=[N+]([O-])C=C1NCCN1Cc1ccc(Cl)nc1 [I.1, 1-(6-chloro-3-pyridylmethyl)-2-nitromethylene-imidazolidine]
[1]; [7]
  mortality at 0.32 ppm: 100%
[1]; [8]
  mortality at 1.6 ppm: 100%
[1]; [9]
  mortality at 8 ppm: 100%
[1]; [10]
  mortality at 40 ppm: 100%
[2]; 0.32 ppm
  Degree of xylophagous damage in the pine tree block (0-5): 0.5
[2]; 1.6 ppm
  Degree of xylophagous damage in the pine tree block (0-5): 0
[2]; 8 ppm
  Degree of xylophagous damage in the pine tree block (0-5): 0
[2]; 40 ppm
  Degree of xylophagous damage in the pine tree block (0-5): 0
[2]
  mortality at 0.32 ppm: 98%
  mortality at 1.6 ppm: 100%
  mortality at 8 ppm: 100%
  mortality at 40 ppm: 100%

## O=[N+]([O-])C=C1SCCN1Cc1ccc(Cl)nc1 [I.2, 3-(6-chloro-3-pyridylmethyl)-2-nitromethylene-thiazolidine]
[1]
  mortality at 0.32 ppm: 100%
  mortality at 1.6 ppm: 100%
  mortality at 8 ppm: 100%
  mortality at 40 ppm: 100%
[2]; 0.32 ppm
  Degree of xylophagous damage in the pine tree block (0-5): 0
[2]; 1.6 ppm
  Degree of xylophagous damage in the pine tree block (0-5): 0
[2]; 8 ppm
  Degree of xylophagous damage in the pine tree block (0-5): 0
[2]; 40 ppm
  Degree of xylophagous damage in the pine tree block (0-5): 0
[2]
  mortality at 0.32 ppm: 100%
  mortality at 1.6 ppm: 100%
  mortality at 8 ppm: 100%
  mortality at 40 ppm: 100%

## O=[N+]([O-])N=C1NCCN1Cc1ccc(Cl)nc1 [I.3, 1-(6-chloro-3-pyridylmethyl)-2-nitroimino-imidazolidine]
[1]
  mortality at 0.32 ppm: 100%
  mortality at 1.6 ppm: 100%
  mortality at 8 ppm: 100%
  mortality at 40 ppm: 100%
[2]; 0.32 ppm
  Degree of xylophagous damage in the pine tree block (0-5): 0
[2]; 1.6 ppm
  Degree of xylophagous damage in the pine tree block (0-5): 0
[2]; 8 ppm
  Degree of xylophagous damage in the pine tree block (0-5): 0
[2]; 40 ppm
  Degree of xylophagous damage in the pine tree block (0-5): 0
[2]
  mortality at 0.32 ppm: 100%
  mortality at 1.6 ppm: 100%
  mortality at 8 ppm: 100%
  mortality at 40 ppm: 100%
[5]; [11]
  State of the larvae at the end of the test: dead, no wood digested: 4
  State of the larvae at the end of the test: dead, wood digested: 6
  State of the larvae at the end of the test: living: 1
  State of the larvae at the end of the test: not found: 1
[5]; [12]
  State of the larvae at the end of the test: dead, no wood digested: 29
  State of the larvae at the end of the test: dead, wood digested: 1
  State of the larvae at the end of the test: living: 0
  State of the larvae at the end of the test: not found: 0
[5]; [13]
  State of the larvae at the end of the test: dead, no wood digested: 27
  State of the larvae at the end of the test: dead, wood digested: 3
  State of the larvae at the end of the test: living: 0
  State of the larvae at the end of the test: not found: 0
[5]; [14]
  State of the larvae at the end of the test: dead, no wood digested: 1
  State of the larvae at the end of the test: dead, wood digested: 4
  State of the larvae at the end of the test: living: 23
  State of the larvae at the end of the test: not found: 2
[5]; [15]
  State of the larvae at the end of the test: dead, no wood digested: 4
  State of the larvae at the end of the test: dead, wood digested: 12
  State of the larvae at the end of the test: living: 11
  State of the larvae at the end of the test: not found: 3
[5]; [16]
  State of the larvae at the end of the test: dead, no wood digested: 6
  State of the larvae at the end of the test: dead, wood digested: 11
  State of the larvae at the end of the test: living: 0
  State of the larvae at the end of the test: not found: 1
[6]; [17]
  rating: 0
  surviving workers: 0%
[6]; [18]
  rating: 1
  surviving workers: 0%
[6]; [19]
  rating: 1
  surviving workers: 0%
[6]; [20]
  rating: 4
  surviving workers: 55% and 51% and 58%
[6]; [21]
  rating: 0
  surviving workers: 0%

## Cl[C@H]1[C@H](Cl)[C@@H](Cl)[C@@H](Cl)[C@H](Cl)[C@H]1Cl [Lindan]
[4]
  toxic value: 75 g/m^3

## CNC(=O)Oc1ccccc1OC(C)C [Propoxur]
[3]
  toxic value: 18-30 g/m^3
[4]
  toxic value: 140 g/m^3
